Assay [1] deals with Mitogen-activated protein kinase 1 (Homo sapiens, UniProt P28482).
Assay [2] has as its target Mitogen-activated protein kinase kinase kinase 4 (Homo sapiens, UniProt Q9Y6R4).
The target of assay [3] is Cyclin-dependent kinase 11B (Homo sapiens, UniProt P21127).
In assay [4] the target is Serine/threonine-protein kinase MARK1 (Homo sapiens, UniProt Q9P0L2).
Assay [5] deals with Tyrosine-protein kinase Yes (Homo sapiens, UniProt P07947).
For assay [6], the target named is Serine/threonine-protein kinase 32C (Homo sapiens, UniProt Q86UX6).
Chain of Serine/threonine-protein kinase 32C (Q86UX6 whole entry): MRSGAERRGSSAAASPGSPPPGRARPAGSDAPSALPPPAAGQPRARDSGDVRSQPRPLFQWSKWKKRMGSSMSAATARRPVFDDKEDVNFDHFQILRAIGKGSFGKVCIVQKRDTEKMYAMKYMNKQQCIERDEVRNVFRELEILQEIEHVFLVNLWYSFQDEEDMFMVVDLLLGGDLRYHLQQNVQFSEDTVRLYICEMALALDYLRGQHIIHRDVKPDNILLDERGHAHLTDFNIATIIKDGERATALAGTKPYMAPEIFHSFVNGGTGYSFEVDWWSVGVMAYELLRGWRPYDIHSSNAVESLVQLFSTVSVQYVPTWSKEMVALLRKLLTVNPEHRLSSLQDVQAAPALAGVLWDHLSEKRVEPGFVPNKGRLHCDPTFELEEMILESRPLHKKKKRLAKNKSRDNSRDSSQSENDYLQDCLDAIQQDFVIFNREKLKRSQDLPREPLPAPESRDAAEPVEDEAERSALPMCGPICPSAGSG
Assay [7] has as its target SRSF protein kinase 2 (Homo sapiens, UniProt P78362).
The target of assay [8] is T1, Muscle, skeletal receptor tyrosine-protein kinase (Homo sapiens, UniProt O15146).
T1 sequence (O15146 whole entry): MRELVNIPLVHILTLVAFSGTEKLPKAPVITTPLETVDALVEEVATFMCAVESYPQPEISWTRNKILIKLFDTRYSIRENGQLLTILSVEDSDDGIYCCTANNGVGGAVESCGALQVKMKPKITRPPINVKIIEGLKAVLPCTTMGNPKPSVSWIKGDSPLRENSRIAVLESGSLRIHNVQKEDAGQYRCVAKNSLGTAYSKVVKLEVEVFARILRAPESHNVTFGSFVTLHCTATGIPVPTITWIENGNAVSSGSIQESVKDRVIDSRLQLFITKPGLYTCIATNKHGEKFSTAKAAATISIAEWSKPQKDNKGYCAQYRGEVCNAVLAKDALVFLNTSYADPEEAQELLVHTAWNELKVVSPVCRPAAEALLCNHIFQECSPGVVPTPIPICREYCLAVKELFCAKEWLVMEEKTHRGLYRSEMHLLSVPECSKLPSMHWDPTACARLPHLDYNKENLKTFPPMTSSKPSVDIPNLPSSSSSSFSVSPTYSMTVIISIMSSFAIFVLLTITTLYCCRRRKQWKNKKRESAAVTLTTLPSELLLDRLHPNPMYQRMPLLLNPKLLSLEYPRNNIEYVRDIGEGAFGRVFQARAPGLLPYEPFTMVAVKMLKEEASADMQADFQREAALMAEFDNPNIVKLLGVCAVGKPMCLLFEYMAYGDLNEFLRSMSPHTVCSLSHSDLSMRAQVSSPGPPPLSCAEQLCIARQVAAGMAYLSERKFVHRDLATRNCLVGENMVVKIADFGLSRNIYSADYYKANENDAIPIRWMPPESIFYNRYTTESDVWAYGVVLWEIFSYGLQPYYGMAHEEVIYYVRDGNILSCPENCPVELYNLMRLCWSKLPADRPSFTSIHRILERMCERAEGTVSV

The target in assay [9] is T2, MAP kinase-activated protein kinase 5 (Homo sapiens, UniProt Q8IW41).
T2 sequence (Q8IW41 whole entry): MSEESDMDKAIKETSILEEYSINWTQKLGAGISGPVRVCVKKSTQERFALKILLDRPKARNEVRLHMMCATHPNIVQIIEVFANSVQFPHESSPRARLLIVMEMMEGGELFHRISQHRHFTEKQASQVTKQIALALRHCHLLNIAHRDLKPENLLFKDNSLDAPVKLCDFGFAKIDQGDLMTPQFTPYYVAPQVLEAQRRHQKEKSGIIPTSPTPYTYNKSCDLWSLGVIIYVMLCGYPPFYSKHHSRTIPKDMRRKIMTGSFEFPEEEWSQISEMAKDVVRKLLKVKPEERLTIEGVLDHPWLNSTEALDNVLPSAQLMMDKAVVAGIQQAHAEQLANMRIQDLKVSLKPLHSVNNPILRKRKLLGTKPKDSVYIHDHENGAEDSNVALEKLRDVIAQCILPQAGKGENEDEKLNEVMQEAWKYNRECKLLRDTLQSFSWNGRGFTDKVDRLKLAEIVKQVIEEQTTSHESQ

In assay [10] the target is Tyrosine-protein kinase Lyn (Homo sapiens, UniProt P07948).
Chain of Tyrosine-protein kinase Lyn (P07948 whole entry): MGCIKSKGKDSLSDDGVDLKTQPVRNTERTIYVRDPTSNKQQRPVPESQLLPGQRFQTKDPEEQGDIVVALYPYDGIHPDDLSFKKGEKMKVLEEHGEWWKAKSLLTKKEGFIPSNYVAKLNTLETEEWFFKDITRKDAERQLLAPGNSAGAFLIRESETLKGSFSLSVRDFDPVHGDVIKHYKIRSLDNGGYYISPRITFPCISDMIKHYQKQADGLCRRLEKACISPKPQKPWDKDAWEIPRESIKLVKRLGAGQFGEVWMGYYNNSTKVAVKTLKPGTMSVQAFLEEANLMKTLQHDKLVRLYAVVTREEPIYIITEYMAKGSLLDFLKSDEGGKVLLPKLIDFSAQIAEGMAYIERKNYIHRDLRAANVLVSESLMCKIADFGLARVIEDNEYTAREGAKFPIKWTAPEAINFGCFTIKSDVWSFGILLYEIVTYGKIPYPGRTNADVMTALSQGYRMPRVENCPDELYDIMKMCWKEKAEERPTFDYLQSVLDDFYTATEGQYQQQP
The target of assay [11] is Serine/threonine-protein kinase pim-1 (Homo sapiens, UniProt P11309).
Chain of Serine/threonine-protein kinase pim-1 (P11309 whole entry): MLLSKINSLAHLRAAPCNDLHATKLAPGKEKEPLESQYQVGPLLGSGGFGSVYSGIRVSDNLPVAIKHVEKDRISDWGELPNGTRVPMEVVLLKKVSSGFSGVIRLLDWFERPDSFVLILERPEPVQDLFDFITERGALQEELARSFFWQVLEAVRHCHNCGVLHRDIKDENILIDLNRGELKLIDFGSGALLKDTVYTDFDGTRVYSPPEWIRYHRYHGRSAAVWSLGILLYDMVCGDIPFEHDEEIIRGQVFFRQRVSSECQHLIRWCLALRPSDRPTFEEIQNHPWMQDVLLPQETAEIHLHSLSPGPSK
Assay [12] addresses T3, cAMP-dependent protein kinase catalytic subunit PRKX (Homo sapiens, UniProt P51817).
T3 sequence (P51817 whole entry): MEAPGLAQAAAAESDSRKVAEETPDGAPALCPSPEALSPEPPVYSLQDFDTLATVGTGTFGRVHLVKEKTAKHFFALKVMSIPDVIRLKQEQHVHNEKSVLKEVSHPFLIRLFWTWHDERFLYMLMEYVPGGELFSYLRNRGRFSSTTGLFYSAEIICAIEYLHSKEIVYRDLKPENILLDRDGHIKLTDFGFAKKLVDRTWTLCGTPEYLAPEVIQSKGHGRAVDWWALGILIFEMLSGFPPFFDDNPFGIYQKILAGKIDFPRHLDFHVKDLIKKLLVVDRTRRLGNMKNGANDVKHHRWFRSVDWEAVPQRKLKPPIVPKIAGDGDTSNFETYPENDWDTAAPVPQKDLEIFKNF

Structures are written as SMILES.

Chain of SRSF protein kinase 2 (P78362 whole entry): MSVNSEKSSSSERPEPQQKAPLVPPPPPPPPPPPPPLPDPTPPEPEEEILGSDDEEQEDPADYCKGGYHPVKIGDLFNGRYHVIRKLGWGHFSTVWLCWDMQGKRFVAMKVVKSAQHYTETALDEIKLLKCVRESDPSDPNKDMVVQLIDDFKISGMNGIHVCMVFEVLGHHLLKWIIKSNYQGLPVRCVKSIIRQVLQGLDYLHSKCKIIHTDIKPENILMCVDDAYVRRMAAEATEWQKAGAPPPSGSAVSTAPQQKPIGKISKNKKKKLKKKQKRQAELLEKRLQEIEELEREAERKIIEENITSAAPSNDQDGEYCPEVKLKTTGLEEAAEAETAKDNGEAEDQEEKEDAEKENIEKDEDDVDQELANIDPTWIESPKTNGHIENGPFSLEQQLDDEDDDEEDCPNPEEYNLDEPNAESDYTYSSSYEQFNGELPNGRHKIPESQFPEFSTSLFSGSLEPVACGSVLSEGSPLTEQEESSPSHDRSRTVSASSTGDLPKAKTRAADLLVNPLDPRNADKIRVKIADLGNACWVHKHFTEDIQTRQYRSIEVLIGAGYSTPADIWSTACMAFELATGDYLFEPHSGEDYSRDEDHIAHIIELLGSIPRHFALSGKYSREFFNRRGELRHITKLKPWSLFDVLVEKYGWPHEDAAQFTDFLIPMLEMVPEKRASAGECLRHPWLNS
Chain of Mitogen-activated protein kinase 1 (P28482 whole entry): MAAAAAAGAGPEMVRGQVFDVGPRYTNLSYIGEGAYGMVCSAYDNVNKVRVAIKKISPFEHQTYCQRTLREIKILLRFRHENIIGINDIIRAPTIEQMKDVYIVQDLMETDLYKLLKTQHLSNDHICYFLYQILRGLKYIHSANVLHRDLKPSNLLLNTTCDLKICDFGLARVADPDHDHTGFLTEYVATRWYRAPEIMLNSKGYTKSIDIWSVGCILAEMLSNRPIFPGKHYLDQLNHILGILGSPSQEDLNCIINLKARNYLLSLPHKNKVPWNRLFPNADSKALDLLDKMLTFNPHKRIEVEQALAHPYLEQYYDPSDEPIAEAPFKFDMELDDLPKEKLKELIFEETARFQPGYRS
Chain of Tyrosine-protein kinase Yes (P07947 whole entry): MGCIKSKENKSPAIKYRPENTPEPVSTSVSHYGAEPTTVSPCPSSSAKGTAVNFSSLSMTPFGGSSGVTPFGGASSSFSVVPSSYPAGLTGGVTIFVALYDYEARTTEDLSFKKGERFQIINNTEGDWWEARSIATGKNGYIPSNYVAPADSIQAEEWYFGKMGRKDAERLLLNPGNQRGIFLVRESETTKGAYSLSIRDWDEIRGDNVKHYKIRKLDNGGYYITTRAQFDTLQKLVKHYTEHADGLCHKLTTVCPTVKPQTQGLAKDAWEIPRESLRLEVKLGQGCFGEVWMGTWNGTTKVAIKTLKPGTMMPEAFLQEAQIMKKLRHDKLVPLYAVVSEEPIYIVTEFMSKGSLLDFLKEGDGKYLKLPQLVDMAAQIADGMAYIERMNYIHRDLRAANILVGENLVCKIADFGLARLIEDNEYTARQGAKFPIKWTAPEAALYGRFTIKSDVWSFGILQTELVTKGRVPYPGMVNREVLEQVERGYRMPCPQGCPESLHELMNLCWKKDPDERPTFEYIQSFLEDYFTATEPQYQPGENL
Chain of Cyclin-dependent kinase 11B (P21127 whole entry): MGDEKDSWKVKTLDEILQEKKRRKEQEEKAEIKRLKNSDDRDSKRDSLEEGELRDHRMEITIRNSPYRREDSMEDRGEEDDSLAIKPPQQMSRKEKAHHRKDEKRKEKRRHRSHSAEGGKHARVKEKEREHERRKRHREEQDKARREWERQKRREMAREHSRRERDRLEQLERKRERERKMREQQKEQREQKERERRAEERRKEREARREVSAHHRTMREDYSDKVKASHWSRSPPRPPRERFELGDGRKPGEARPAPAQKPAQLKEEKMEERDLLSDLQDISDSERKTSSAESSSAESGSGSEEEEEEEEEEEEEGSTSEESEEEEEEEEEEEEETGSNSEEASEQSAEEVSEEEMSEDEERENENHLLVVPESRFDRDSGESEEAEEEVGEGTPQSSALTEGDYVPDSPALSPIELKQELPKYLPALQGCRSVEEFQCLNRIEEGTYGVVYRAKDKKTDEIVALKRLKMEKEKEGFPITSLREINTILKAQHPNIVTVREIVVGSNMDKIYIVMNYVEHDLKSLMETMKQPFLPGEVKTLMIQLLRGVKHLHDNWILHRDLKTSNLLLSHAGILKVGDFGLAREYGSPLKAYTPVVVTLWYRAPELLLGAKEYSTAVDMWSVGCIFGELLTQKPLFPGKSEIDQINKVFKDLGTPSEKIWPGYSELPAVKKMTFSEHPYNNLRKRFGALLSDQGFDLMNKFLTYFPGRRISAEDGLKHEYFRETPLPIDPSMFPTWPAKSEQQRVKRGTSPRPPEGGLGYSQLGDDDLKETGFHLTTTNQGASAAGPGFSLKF
Chain of Serine/threonine-protein kinase MARK1 (Q9P0L2 whole entry): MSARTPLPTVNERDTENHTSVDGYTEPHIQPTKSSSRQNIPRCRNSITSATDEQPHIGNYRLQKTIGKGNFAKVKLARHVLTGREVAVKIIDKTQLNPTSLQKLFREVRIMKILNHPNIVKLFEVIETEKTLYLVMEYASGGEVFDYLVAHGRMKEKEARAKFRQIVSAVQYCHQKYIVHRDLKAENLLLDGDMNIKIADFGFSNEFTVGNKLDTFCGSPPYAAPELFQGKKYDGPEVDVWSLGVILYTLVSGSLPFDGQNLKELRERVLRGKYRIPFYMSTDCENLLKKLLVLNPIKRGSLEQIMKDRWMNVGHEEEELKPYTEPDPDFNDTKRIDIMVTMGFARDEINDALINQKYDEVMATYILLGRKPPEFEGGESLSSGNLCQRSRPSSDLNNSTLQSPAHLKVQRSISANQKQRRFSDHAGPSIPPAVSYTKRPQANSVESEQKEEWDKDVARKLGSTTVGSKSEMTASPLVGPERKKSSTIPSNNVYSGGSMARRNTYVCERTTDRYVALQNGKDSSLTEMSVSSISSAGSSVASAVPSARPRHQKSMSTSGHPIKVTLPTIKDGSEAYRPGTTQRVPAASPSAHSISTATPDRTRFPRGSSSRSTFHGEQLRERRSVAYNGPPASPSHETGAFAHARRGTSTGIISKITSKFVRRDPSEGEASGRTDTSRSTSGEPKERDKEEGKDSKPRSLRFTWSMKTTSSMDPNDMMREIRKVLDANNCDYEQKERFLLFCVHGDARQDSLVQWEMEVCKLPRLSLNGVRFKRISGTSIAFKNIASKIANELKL

As for `Oc1ccc(-c2nc(-c3ccncc3)c(-c3ccc(F)cc3)[nH]2)cc1` [SB-202190], the Kd in [1], in assay [2], in assay [3], in assay [4], in [5] and in assay [6] was > 10 µM in each case. For the same compound, the equilibrium dissociation constant (Kd) in assay [7], in assay [8], in [9], in assay [10], in assay [11] and in assay [12] was > 10 µM each time.
On to `CCN1CCN(Cc2ccc(NC(=O)Nc3ccc(Oc4cc(NC)ncn4)cc3)cc2C(F)(F)F)CC1` [AST-487], for which the Kd in assay [12] was > 10 µM.
Turning to `COCC(=O)NC/C=C/c1ccc2ncnc(Nc3ccc(Oc4ccc(C)nc4)c(C)c3)c2c1` [CP-724714], the dissociation constant (Kd) in assay [1], in [2], in assay [3], in assay [4], in [5] and in [6] was > 10 µM each time. The Kd in assay [7], in assay [8], in [9], in assay [10], in assay [11] and in assay [12] was > 10 µM each time.
In the case of `Nc1nc(Nc2ccc(S(N)(=O)=O)cc2)nn1C(=O)c1c(F)cccc1F` [JNJ-7706621], the Kd in assay [2], in assay [5], in [6], in [7], in [8] and in assay [9] was > 10 µM each time. Besides, the Kd in assay [10] is > 10 µM.
For the compound `NC(=O)c1ccc(-c2nc(-c3ccc4c(c3)OCO4)c(-c3ccccn3)[nH]2)cc1` [SB-431542], the Kd in assay [1], in assay [2], in [3], in [4], in assay [5] and in assay [6] was > 10 µM each time. Further, the Kd in [7], in assay [8], in [9], in assay [10], in assay [11] and in assay [12] was > 10 µM in each case.
As to `CCOc1cc2ncc(C#N)c(Nc3ccc(F)c(Cl)c3)c2cc1NC(=O)/C=C/CN(C)C` [PELITINIB], the Kd in [1] is > 10 µM; in [3] it was > 10 µM; in [5] it was 1.1 µM; in assay [6], > 10 µM; in [7], > 10 µM; in assay [8], > 10 µM. Moreover, the dissociation constant Kd was > 10 µM in assay [9], 0.72 µM in [10], > 10 µM in assay [11] and > 10 µM in [12].

Broadly, the Kd is the constant that tells how readily two partners part at equilibrium. Lower therefore signals higher affinity.

These data come from ChEMBL document CHEMBL1150977, “A quantitative analysis of kinase inhibitor selectivity” (Nat Biotechnol, 2008).
